Converted amounts (≈) assume the structure as drawn.
Columns and labels:
[1] = system: Cladosporium herbarum; experiment: Antifungal activity against Cladosporium herbarum; assay type: functional, organism-based
[2] = system: Penicillium griseofulvum; experiment: Antifungal activity against Penicillium griseofulvum; assay type: functional, organism-based

EC50 [1]: 0.9 µg/mL (≈ 3.61 µM) | EC50 [2]: 3 µg/mL (≈ 12 µM)
SMILES: CS/C=C/C(=O)N(C)C(=O)Cc1ccccc1 [PENIMIDE A]
